Measurements from patent publication US20200368174A1, “PARTICLES FOR TARGETED DELIVERY OF ACTIVE AGENTS INTO ADIPOSE STROMAL CELLS” (Texas Tech University System, priority 2018, published 2020).
One block for each molecule: values may come before it. Where no end group is shown, it is not given here. Side-chain parts run from the residue outwards. The star is where a group is joined. DSPE = CCCCCCCCCCCCCCCCCC(=O)OC[C@H](COP(=O)(O)OCCN*)OC(=O)CCCCCCCCCCCCCCCCC; MAL = maleimide

Columns and labels:
[1] = In vitro release, dialysis method (Example 2); format: physicochemical
Protocol: The mean particle size, PI and zeta potential were measured every day. The in vitro release behavior was measured in the dissolution medium, which was composed of 1× phosphate buffer saline (1×PBS, pH 7.4) and methanol (80:20, v/v), using a dialysis method. […] R released into the medium at each time point was determined using the Shimadzu high-performance liquid chromatography (HPLC) system (Shimadzu Corporation, Kyoto, Japan).

[2] = Aqueous solubility, 1 mg R in 1 mL 1×PBS; format: physicochemical; settings: visual observation
[3] = system: 3T3-L1 white adipocytes; experiment: Browning: marker mRNA by Real Time-PCR in differentiating adipocytes, basal or ISO-stimulated; format: cell-based, Murine
Protocol: The cells were then stimulated with isoproterenol (ISO) for 6 hr. Relative mRNA expression of Uncoupling protein 1 (UCP-1), PPARγ, PPARγ co-activator 1α (PGC-1α), and PR-domain-containing 16 (PRDM16) were analyzed by semi-quantitative Real Time-PCR. Data=mean±SEM (n=3). E, Ethanol containing vehicle control for native R. R, rosiglitazone, a positive control. Letters of a-c or a′-c′ on top of the bars define differences among various forms of R under either basal or ISO-stimulated conditions, respectively. Different letters indicate significant differences among various R. *, p<0.05; **, p<0.01; ***, p<0.001 compared to their controls.
The cells were then stimulated with ISO for 6 hr. Relative mRNA expression of white marker insulin-like growth factor-binding protein 3 (IGFBP3) (FIG. 9A) and beige marker CD137 and transmembrane protein 26 (Tmem26) (FIG. 9B) were analyzed by semi-quantitative reverse transcription polymerase chain reaction (RT-PCR). Data=mean±SEM (n=3). E, Ethanol containing vehicle control for native R. R, rosiglitazone, a positive control. Letters of a-c or a′-c′ on top of the bars define differences among various forms of R under both basal and ISO-stimulated conditions, respectively. Different letters indicate significant differences among various R. *, p<0.05; **, p<0.01 compared to the controls.
Total RNA was extracted, cDNA was synthesized, and real-time PCR was performed using an ABI 7300HT instrument.
The hallmark of beige adipocytes is induced thermogenesis in response to stimuli, such as […] agonist ISO.

[4] = system: obese C57BL/6J mice; experiment: Anti-obesity study: body weight, composition, food intake, fat pads, adipocyte size; format: in vivo
Protocol: (§1) Sixty male 6-week old C57BL/6J mice from Jackson's lab were fed with a high-fat diet (HFD) (45% energy from fat, Research Diets, Inc, D12451) for 9 weeks starting from week 1 (age 7 weeks old) to week 9 (age 15 weeks old). The mice were allowed to drink and eat the HFD ad libitum and maintained at 22-24° C., 45% relative humidity and a daily 12/12 hour light/dark cycle. […] Treatments were intravenously injected into mice via tail veins twice a week. Food intake and body weight were recorded weekly. Glucose tolerance test (GTT) was conducted at week 8 and the insulin tolerance test (ITT) and cold tolerance test were conducted at week 9.
After 9 weeks, mice were fasted overnight and humanely sacrificed. Blood was collected from the abdominal vein and brain, liver, lung, spleen, kidneys, skeletal muscle, gonadal white adipose tissue (G-WAT), inguinal WAT (I-WAT), retroperitoneal WAT (RP-WAT), and BAT of each mouse. Each tissue was cut into 3 pieces to be immediately frozen in liquid nitrogen followed by storage at −80° C. and fixed in 4% paraformaldehyde (for histology).
Body composition of mice was performed at week 0, 2, 4 and 5 of treatments using an EchoMRI™ Whole Body Composition Analyzer (MRI system) (EchoMRI LLC, Houston, Tex., USA).
H&E staining of I-WAT was conducted by the Department of Pathology of Texas Tech University Health Sciences Center. Briefly, the paraffin-embedded I-WAT sections (5 μm) were deparaffinized and rehydrated with xylene and ethanol. Sections were cleaned with water to skim reagent residue. Excess water was then blotted, the sections were incubated with Hematoxylin for 4 minutes, and washed several times using water. The sections were stained with Eosin and dehydrated. Finally, the sections were cleaned and covered with xylene-based mounting medium.

[5] = system: primary stromal stem/progenitor cells derived from inguinal WAT (iWAT); settings: 10 μM, brown-like differentiation; cited from earlier work
[6] = Chemical stability of R by HPLC under light or dark; format: physicochemical
[7] = system: obese C57BL/6J mice; experiment: Fasting insulin, glucose, HOMA-IR, leptin, GTT and ITT; settings: mouse, in vivo
Protocol: as §1
GTT and ITT were performed at end of treatments to assess whole-body glucose and insulin tolerance. […] Blood was collected and blood glucose concentrations were measured with a One Touch® glucometer from tail vein blood at 0, 15, 30, 60, 90, and 120 minutes post-injection. […] Blood glucose concentrations were measured as above at 0, 15, 30, 45, and 60 minutes post-injection. The area under the curve (AUC) was calculated. Blood glucose concentrations were plotted against time and the area under curve was calculated by following formula: […]
Fasting plasma glucose concentrations were measured by One Touch® glucometer. Fasting insulin concentrations were determined by an insulin Millipore® ELISA commercial kit (Millipore, Billerica, Mass., USA). […]

[8] = In vitro release, dialysis method (Example 1); format: physicochemical; settings: for R released from dialysis bag: bag containing 0.5 mg R
Protocol: The dissolution medium was composed of 1×PBS and methanol (80:20, v/v). […] See Sun et al., Colloids Surf B Biointerfaces, 113 (2014) 15-24.
The release study was conducted in the dark to prevent light-induced R degradation. To minimize the effect of R stability, the dissolution medium was changed completely each hour for the first 2 hr, and every 2 hr for the rest 8 hr.

[9] = cited from earlier work
[10] = biological target: decorin lacking the glycanation site (ΔDCN), on ΔDCN-transduced 3T3-L1 cells (ΔDCN cells); experiment: cell-based or functional assay
[11] = biological target: endogenous surface ΔDCN receptor of mouse adipose stromal cells (ASC) in C57BL/6J white adipose tissue stromal vascular cells (mouse); experiment: cell-based or functional assay
[12] = biological target: decorin lacking the glycanation site (ΔDCN), on ΔDCN-transduced 3T3-L1 cells (ΔDCN cells); experiment: flow cytometry of ΔDCN cells incubated 2 h at 37° C. with DiD-labelled nanoparticles

R release ([1]; after eight hours): undetected
R released from dialysis bag ([1]; first two hours): more than 0.13 mg
released R as share of total R ([1]; first two hours): around 35%
mass of R released at every time point ([1]; following six hours): lower than 0.02 mg
dissolution of 1 mg in 1 mL of 1×PBS [2]: hardly dissolved
R degradation rate ([6]; 4° C., dark, 7 days): 17%
R degradation rate ([6]; 22° C., dark, 7 days): 48%
R degradation rate ([6]; 37° C., dark, 7 days): 52%
R degradation rate ([6]; 37° C., under the light, 6 days): 90%
R degraded ([6]; pH 7.4, 4° C., under the light, 7 days): 40%
R degraded ([6]; pH 7.4, 22° C., under the light, 7 days): 60%
R degraded ([6]; pH 7.4, 37° C., under the light, 7 days): 96%
release behavior ([8]; 1×PBS:methanol 80:20, dark): burst release
R released from dialysis bag ([8]; 2-4 hr period): about 0.02 mg
accumulative released R mass ([8]; 10 hr period): reached a plateau
R released from dialysis bag ([8]; after 1 hr): about 0.17 mg
Molecule: Oc1ccc(/C=C/c2cc(O)cc(O)c2)cc1 [native R, 3,5,4′-trihydroxy-trans-stilbene]
Cox4a mRNA ([3]; 20 μM, ISO stimulated): increased
CD137 mRNA expression ([3]; ISO stimulated conditions): dose-dependently increased
Tmem26 expression ([3]; ISO stimulation): increased
PRDM16 mRNA expression ([3]; basal conditions): did not change
Tmem26 mRNA expression ([3]; basal conditions): decreased
IGFBP3 mRNA expression compared to controls ([3]; both basal and ISO stimulated conditions): dose-dependently decreased
diameter of adipocytes in I-WAT ([4]; H&E sections, after 5 weeks): around 100 μm
body weight ([4]; HFD mice, 15 mg/kg, IV twice a week, 5 weeks, vs saline): no significant reduction
percentage of body fat (% body fat) ([4]; HFD mice, 15 mg/kg, IV twice a week, 5 weeks, vs saline, listed as Free R, 15 mg/kg): slightly lower
percentage of body fat (% body fat) ([4]; HFD mice, 15 mg/kg, IV twice a week, 5 weeks, vs saline, listed as free R, 15 mg/kg): no significant reduction
body weight gain ([4]; compared with saline group): decrease
adipocyte size / area of cells in I-WAT ([4]; vs saline): no significant reduction
mRNA expression of UCP1 and beige marker CD137 and Tmem26 [5]: enhanced
fasting blood insulin and glucose concentrations compared to saline [7]: reduced
solubility of R in water and physiological fluid [9]: less than 0.1 mg/mL

ΔDCN cells R content at 4° C. for 4 hours, against free R and Rnano [10]: 2 fold
DiD+ ASC after intravenous injection, DiD-L-Rnano mouse against DiD-Rnano treatment (flow cytometry; depot not given, I-WAT by context) [11]: 9.3 fold
DiD+ cell ratio among the ASC population after intravenous injection of DiD-L-Rnano (flow cytometry; depot not given, I-WAT by context) [11]: 31.7%
cellular R content of SVCs at 4° C., against free R-treated SVF cells [11]: 2.8 fold
cellular R content of SVCs at 37° C., against free R-treated SVF cells [11]: 2.5 fold
percentage of DiD+ ASC in G-WAT after intravenous injection, DiD-L-Rnano mouse against DiD-Rnano mouse (flow cytometry) [11]: 3.5 fold
percentage of DiD+ ASC in RP-WAT after intravenous injection, DiD-L-Rnano mouse against DiD-Rnano mouse (flow cytometry) [11]: 4.8 fold
fold DiD positive rate of ΔDCN cells against DiD-labeled Rnano [12]: 5 fold
B1: ligand-coated Rnano (L-Rnano): resveratrol-loaded lipid nanoparticle carrying DSPE-PEG5000-peptide, the linear ASC-targeting peptide … (SEQ ID NO: 2), on its … (peptide)
peptide: GSWKYWFGEGGC([MAL-PEG5000-DSPE])
modifications: also: displayed in many copies on lipid nanoparticle, copy number not given here
